# Laboratory results: PubChem BioAssay AID328 (DTP/NCI, 2004)
# Values joined by “and” are separate entries in the source; they are usually repeats but may differ in a detail not shown here. Identical values can stand only once. Inconclusive results and toxic doses are left out.
# System: BDF1 mice, P388 leukemia ip, median survival T/C
# Assay: NCI In Vivo Anticancer Drug Screen. Data for tumor model P388 Leukemia (intraperitoneal) in B6D2F1 (BDF1) mice
# Settings: endpoint: median survival time, higher = longer survival
# Procedure, shortened: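 Read-out is survival of treated animals expressed relative to the vehicle group, as a T/C ratio.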
# [1] = dose: 100.0 mg/kg/injection, schedule: Q01DX009 (ip), vehicle: saline with Tween-80
# [2] = dose: 100.0 mg/kg/injection, schedule: Q04DX003 (ip), vehicle: saline with Tween-80
# [3] = dose: 100.0 mg/kg/injection, schedule: Q04DX003 (ip), vehicle: saline
# [4] = dose: 150.0 mg/kg/injection, schedule: Q04DX003 (ip), vehicle: saline with Tween-80
# [5] = dose: 200.0 mg/kg/injection, schedule: Q01DX009 (ip), vehicle: saline with Tween-80
# [6] = dose: 200.0 mg/kg/injection, schedule: Q04DX003 (ip), vehicle: saline with Tween-80
# [7] = dose: 400.0 mg/kg/injection, schedule: Q04DX003 (ip), vehicle: saline with Tween-80
# [8] = dose: 100.0 mg/kg/injection, schedule: Q04DX003 (ip), vehicle: Klucel (hydroxypropylcellulose) (HPC)
# [9] = dose: 200.0 mg/kg/injection, schedule: Q04DX003 (ip), vehicle: Klucel (hydroxypropylcellulose) (HPC)
# [10] = dose: 400.0 mg/kg/injection, schedule: Q04DX003 (ip), vehicle: Klucel (hydroxypropylcellulose) (HPC)
# [11] = dose: 400.0 mg/kg/injection, schedule: Q01DX009 (ip), vehicle: saline with Tween-80
smiles,measurement,setting,value
CC(=O)OC1C(=O)C(C)(C)CSCC1(C)C (stereo not drawn),T/C,"dose: 100.0 mg/kg/injection, schedule: Q01DX009 (ip), vehicle: Klucel (hydroxypropylcellulose) (HPC)",104 % of control
same,T/C,"dose: 200.0 mg/kg/injection, schedule: Q01DX009 (ip), vehicle: Klucel (hydroxypropylcellulose) (HPC)",95 % of control
same,T/C,"dose: 400.0 mg/kg/injection, schedule: Q01DX009 (ip), vehicle: Klucel (hydroxypropylcellulose) (HPC)",104 % of control
O=C(O)c1c(I)c(I)c(I)c(I)c1C(=O)c1ccccc1,T/C,"dose: 44.0 mg/kg/injection, schedule: Q04DX003 (ip), vehicle: saline",109 % of control
same,T/C,"dose: 67.0 mg/kg/injection, schedule: Q04DX003 (ip), vehicle: saline with Tween-80",104 % of control
same,T/C,"dose: 67.0 mg/kg/injection, schedule: Q04DX003 (ip), vehicle: saline",104 % of control
same,T/C,[1],111 % of control
same,T/C,[2],104 % of control
same,T/C,[3],118 % of control
same,T/C,[4],109 % of control
same,T/C,"dose: 150.0 mg/kg/injection, schedule: Q04DX003 (ip), vehicle: saline",113 % of control
same,T/C,[5],111 % of control
same,T/C,[6],110 % of control
same,T/C,[7],120 % of control
O=C(Nc1ccccc1)Oc1ccc(Cl)cc1,T/C,[8],104 % of control
same,T/C,[9],95 % of control
same,T/C,[10],109 % of control
CC(=O)OCC12CCC(C)=CC1O[C@H]1[C@@H](OC(C)=O)[C@H](OC(C)=O)[C@]2(C)[C@@]12CO2 (stereo partly drawn),T/C,"dose: 2.5 mg/kg/injection, schedule: Q04DX002 (ip), vehicle: saline + alcohol",96 % of control
CNc1nc(N)nc(Nc2ccc(I)cc2)c1N=O,T/C,[1],90 % of control and 100 % of control
same,T/C,[2],95 % of control
same,T/C,[5],90 % of control and 91 % of control
same,T/C,[6],112 % of control
same,T/C,[11],87 % of control
same,T/C,[7],91 % of control
O=S(=O)(Nc1c(Cl)c(Cl)c(Cl)c(Cl)c1NS(=O)(=O)c1ccccc1)c1ccccc1,T/C,[8],100 % of control
same,T/C,[9],105 % of control
same,T/C,[10],100 % of control
CC1=CC=CC(=O)C1(C)C(Cl)Cl (stereo not drawn),T/C,[2],110 % of control
same,T/C,[6],115 % of control
same,T/C,[7],120 % of control
CC(=O)CC(C)=O.CC(=O)CC(C)=O.[CH3][Sn][CH3],T/C,"dose: 25.0 mg/kg/injection, schedule: Q01DX001 (ip), vehicle: Klucel (hydroxypropylcellulose) (HPC)",111 % of control
same,T/C,"dose: 50.0 mg/kg/injection, schedule: Q01DX001 (ip), vehicle: Klucel (hydroxypropylcellulose) (HPC)",119 % of control
O=C(/C=C\c1ccnc2ccccc12)c1ccc([N+](=O)[O-])cc1,T/C,"dose: 12.5 mg/kg/injection, schedule: Q04DX003 (ip), vehicle: water",96 % of control
same,T/C,"dose: 25.0 mg/kg/injection, schedule: Q01DX009 (ip), vehicle: water",114 % of control
same,T/C,"dose: 25.0 mg/kg/injection, schedule: Q04DX003 (ip), vehicle: water",90 % of control
same,T/C,"dose: 50.0 mg/kg/injection, schedule: Q01DX009 (ip), vehicle: water",117 % of control
same,T/C,"dose: 50.0 mg/kg/injection, schedule: Q04DX003 (ip), vehicle: water",115 % of control
same,T/C,"dose: 100.0 mg/kg/injection, schedule: Q01DX009 (ip), vehicle: water",95 % of control
same,T/C,"dose: 100.0 mg/kg/injection, schedule: Q04DX003 (ip), vehicle: water",106 % of control and 111 % of control
same,T/C,"dose: 200.0 mg/kg/injection, schedule: Q01DX009 (ip), vehicle: water",98 % of control
same,T/C,"dose: 200.0 mg/kg/injection, schedule: Q04DX003 (ip), vehicle: water",100 % of control
same,T/C,"dose: 400.0 mg/kg/injection, schedule: Q01DX009 (ip), vehicle: water",96 % of control
same,T/C,"dose: 400.0 mg/kg/injection, schedule: Q04DX003 (ip), vehicle: water",100 % of control
CCOC(=O)/C=C(\C)Nc1cccc([N+](=O)[O-])c1,T/C,"dose: 25.0 mg/kg/injection, schedule: Q01DX009 (ip), vehicle: other",110 % of control
same,T/C,"dose: 50.0 mg/kg/injection, schedule: Q01DX009 (ip), vehicle: other",93 % of control
same,T/C,"dose: 100.0 mg/kg/injection, schedule: Q01DX009 (ip), vehicle: other",100 % of control
same,T/C,"dose: 200.0 mg/kg/injection, schedule: Q01DX009 (ip), vehicle: other",110 % of control
same,T/C,"dose: 400.0 mg/kg/injection, schedule: Q01DX009 (ip), vehicle: other",116 % of control
COc1cc(/C=N/NC(=O)C(=O)Nc2cccc(Cl)c2)cc(OC)c1O,T/C,"dose: 50.0 mg/kg/injection, schedule: Q01DX005 (ip), vehicle: saline with Tween-80",91 % of control
same,T/C,"dose: 100.0 mg/kg/injection, schedule: Q01DX005 (ip), vehicle: saline with Tween-80",100 % of control
same,T/C,"dose: 200.0 mg/kg/injection, schedule: Q01DX005 (ip), vehicle: saline with Tween-80",100 % of control
C/C=C1/CC(C)C(C)(O)C(=O)OCC2CCN3CCC(OC1=O)C23 (stereo not drawn),T/C,"dose: 25.0 mg/kg/injection, schedule: Q01DX010 (ip), vehicle: saline",111 % of control
same,T/C,"dose: 50.0 mg/kg/injection, schedule: Q01DX010 (ip), vehicle: saline",116 % of control
same,T/C,"dose: 100.0 mg/kg/injection, schedule: Q01DX010 (ip), vehicle: saline",116 % of control
CC(=O)n1cc(C2CC(=O)OC3=C2C(=O)CCC3)c2ccccc21 (stereo not drawn),T/C,[1],94 % of control
same,T/C,[2],98 % of control
same,T/C,[5],100 % of control
same,T/C,[6],93 % of control
same,T/C,[11],102 % of control
same,T/C,[7],93 % of control
CN(Cc1cnc2nc(N)nc(N)c2n1)c1c(Cl)cc(C(=O)NC(CCC(=O)O)C(=O)O)cc1Cl (stereo not drawn),T/C,"dose: 17.5 mg/kg/injection, schedule: Q01DX009 (ip), vehicle: saline",213 % of control
same,T/C,"dose: 35.0 mg/kg/injection, schedule: Q01DX009 (ip), vehicle: saline",270 % of control
same,T/C,"dose: 70.0 mg/kg/injection, schedule: Q01DX009 (ip), vehicle: saline",270 % of control
same,T/C,[1],95 % of control
same,T/C,[5],86 % of control
same,T/C,"dose: 264.0 mg/kg/injection, schedule: Q04DX003 (ip), vehicle: saline with Tween-80",175 % of control
same,T/C,[7],241 % of control
same,T/C,"dose: 600.0 mg/kg/injection, schedule: Q04DX003 (ip), vehicle: saline with Tween-80",250 % of control
Cc1nc(N)c(Cl)nc1C,T/C,"dose: 50.0 mg/kg/injection, schedule: Q04DX003 (ip), vehicle: saline with Tween-80",102 % of control and 104 % of control
same,T/C,[2],103 % of control
same,T/C,[4],103 % of control
same,T/C,[6],95 % of control and 104 % of control
same,T/C,[7],104 % of control
CCOc1c(Cl)cc(Cl)cc1C(c1ccc(Cl)cc1S(=O)(=O)O)c1cc(Cl)cc(Cl)c1OCC,T/C,"dose: 25.0 mg/kg/injection, schedule: Q01DX009 (ip), vehicle: saline with Tween-80",108 % of control
same,T/C,"dose: 50.0 mg/kg/injection, schedule: Q01DX009 (ip), vehicle: saline with Tween-80",116 % of control
CC(=O)Nc1cccc(N(CCOS(C)(=O)=O)CCOS(C)(=O)=O)c1,T/C,"dose: 13.0 mg/kg/injection, schedule: Q04DX003 (ip), vehicle: saline sonified",95 % of control
same,T/C,"dose: 20.0 mg/kg/injection, schedule: Q04DX003 (ip), vehicle: saline sonified",95 % of control
same,T/C,"dose: 30.0 mg/kg/injection, schedule: Q04DX003 (ip), vehicle: saline sonified",100 % of control
CCOC(=O)Nc1cc(NCC(=O)c2ccc(C(F)(F)F)cc2)c([N+](=O)[O-])c(N)n1,T/C,"dose: 50.0 mg/kg/injection, schedule: Q01DX001 (ip), vehicle: saline with Tween-80",94 % of control
same,T/C,"dose: 100.0 mg/kg/injection, schedule: Q01DX001 (ip), vehicle: saline with Tween-80",105 % of control
same,T/C,"dose: 200.0 mg/kg/injection, schedule: Q01DX001 (ip), vehicle: saline with Tween-80",105 % of control
CC(C)=CCCC(C)=C(C(=O)O)C(=O)O,T/C,[8],113 % of control
same,T/C,[9],111 % of control
same,T/C,[10],110 % of control
O=CNC(Cc1ccc(O)cc1)C(=O)O (stereo not drawn),T/C,[3],110 % of control
same,T/C,"dose: 200.0 mg/kg/injection, schedule: Q04DX003 (ip), vehicle: saline",100 % of control
same,T/C,"dose: 400.0 mg/kg/injection, schedule: Q04DX003 (ip), vehicle: saline",100 % of control
CCN1c2ccccc2CC(CCN(C(C)C)C(C)C)(C(N)=O)c2ccccc21 (stereo not drawn),T/C,"dose: 100.0 mg/kg/injection, schedule: Q04DX002 (ip), vehicle: saline with Tween-80",108 % of control
